This is an account of results in patent US20250255930A1, “METHODS OF TREATMENT OF TINNITUS USING DERIVATIVES OF OXYTOCIN” (MASKBEGONE LLC, priority 2024, published 2025).

The structures appear in SMILES notation.

The nature of this assay: clinical use of intranasal oxytocin formulations to treat tinnitus (patient case reports). It is filed as in vivo, human. An excerpt:
According to an embodiment, this disclosure provides a method for treating tinnitus. The method comprises administering intranasally to an individual a composition comprising or consisting essentially of oxytocin, wherein such administration results in treatment of tinnitus. The effectiveness of treatment of tinnitus may be monitored by quantifying tinnitus, such as by self-evaluation using clinically accepted techniques. An example is the Tinnitus Handicap Inventory (“THI”), a validated and published measurement technique. (Newman et al., Arch Otolaryngol Head Neck Surg, 1996 February 122 (2), 143-8). In an embodiment, the improvement in an individual using THI may comprise an improvement of at least 10%. In various embodiments, the improvement may comprise from 10-100%, such as at least 20, 30, 40, 50, 60, 70, 80, 90, 95, or 99%.
This example describes clinical use of the present formulations to treat tinnitus. […] A compounded formulation of oxytocin that provided a dose of 60 IU daily (30 IU twice daily) was then used. The formulation contained oxytocin, magnesium chloride, citric acid, and sodium citrate in sterile water. […] The dose was then increased to 45 IU (3 sprays of 15 IU) 4 times daily. […] A thickener was then added to the formulation keeping the oxytocin amount the same. […] Their score on the Tinnitus Handicap Inventory reduced from a pretreatment score of 96 (meaning a catastrophic level) to a current score of 14 (meaning mild or no tinnitus). The patient has remained improved over 1 year since initiating therapy. Their current dose is 22.5 IU in each nostril 4 times daily. Since their tinnitus occurs in distinct cycles, at times when tinnitus severity is loudest, they increase the dose to 5 times daily for 2 days. […] Their current handicap inventory is 8.

Setting [1] is: first patient, 22.5 IU in each nostril 4 times daily, 5 times daily for 2 days when loudest, past 3 months.
Setting [2] is: patient with constant tinnitus, 30 IU 4 times daily, after 2 weeks.
Where [3] appears, read: second patient, 45 IU twice daily.

`CC[C@H](C)[C@@H]1NC(=O)[C@H](Cc2ccc(O)cc2)NC(=O)[C@@H](N)CSSC[C@@H](C(=O)N2CCC[C@H]2C(=O)N[C@@H](CC(C)C)C(=O)NCC(N)=O)NC(=O)[C@H](CC(N)=O)NC(=O)[C@H](CCC(N)=O)NC1=O` [oxytocin, Cys-Tyr-Ile-Gln-Asn-Cys-Pro-Leu-Gly]: under “first patient”, the “time patient has remained improved since initiating therapy” value is “over 1 year”. This molecule registered a current handicap inventory (first patient, 22.5 IU in each nostril 4 times daily, 5 times daily for 2 days when loudest) of 8. Moreover, under setting [1], the time without tinnitus is reported as at most 10 days and the tinnitus severity result is recorded as “reduced tinnitus severity”. Where the note is “first patient, 45 IU (3 sprays of 15 IU) 4 times daily”, the relief of tinnitus entry is given as “significant relief”. For the same molecule, the patient-reported benefit entry (first patient, 60 IU daily (30 IU twice daily), oxytocin, magnesium chloride, citric acid, sodium citrate in sterile water) is “partial benefit”. Besides, the “score on the Tinnitus Handicap Inventory” value (first patient, after treatment with thickener formulation, pretreatment score 96) stood at 14. For the setting “first patient, initial dose of less than 20 IU daily”, the relief of tinnitus result was “did not provide any relief”. Also, where the note is “first patient, thickener added to formulation, oxytocin amount the same (45 IU 4 times daily)”, the tinnitus free period entry is on record as “several days of tinnitus free period”. Moreover, the relief of tinnitus entry (lower amounts of oxytocin (such as under 20 IU per day)) is “did not result in any significant relief”. Besides, the improvement entry (patient with constant tinnitus after neck injury, 45 IU (22.5 IU in each nostril) 4 times daily for 30 days) is reported as “about 15%”. The tinnitus volume result (patient with constant tinnitus after neck injury, dose raised to 5 times daily on occasions) is listed as “diminished tinnitus volume”. Under setting [2], the “time without noticing the tinnitus” value is reported as “several hours per day without noticing the tinnitus” and the tinnitus intensity result was “tinnitus intensity has lowered”. For the same molecule, the benefit entry (patient with drug-caused tinnitus, 30 IU twice daily) was “without benefit”. Also, the “decrease in tinnitus volume” value (patient with drug-caused tinnitus, 45 IU 4 times daily) is “approximately 30%”. Besides, under setting [3], the benefit result was “significant benefit”, the “reduction of tinnitus volume” value is recorded as 45-60%, the “time patient remains improved” value is reported as “more than a year” and the tinnitus free days result is on record as “some days in which they are tinnitus free”.
